From BigSolDB 2.1

CN1COCN(Cc2cnc(Cl)s2)C1=N[N+](=O)[O-]
solubility (mole fraction)
Conditions | 278.15 K | 283.15 K | 288.15 K | 293.15 K | 298.15 K | 303.15 K | 308.15 K | 313.15 K | 318.15 K | 323.15 K
in 1,4-dioxane | – | – | 0.00242 | 0.00311 | 0.00395 | 0.00496 | 0.00626 | 0.00763 | 0.00958 | 0.0117
in DMAc | 0.0654 | 0.0728 | 0.0802 | 0.0888 | 0.0976 | 0.107 | 0.118 | 0.129 | 0.14 | 0.152
in DMSO | – | – | 0.0672 | 0.0776 | 0.0885 | 0.101 | 0.115 | 0.13 | 0.147 | 0.164
in acetonitrile | 0.00675 | 0.00854 | 0.0106 | 0.0131 | 0.0161 | 0.0196 | 0.0238 | 0.0288 | 0.0349 | 0.0414
in water | 7.29e-05 | 9.97e-05 | 0.000132 | 0.000182 | 0.000241 | 0.000322 | 0.000418 | 0.000538 | 0.000696 | 0.000885
